The values that follow are results of earlier work, collected in patent US20260272891A1, “TREATMENT OF AUTOIMMUNE DISEASES AND CANCER WITH PROTEASE INHIBITORS” (Lundquist Institute for Biomedical Innovation at …, priority 2023, published 2026).

For the series, the system named is all variants of concern, including Omicron and its variants. The settings on record: cited from earlier work.

With `CC(C)(C)[C@H](NC(=O)C(F)(F)F)C(=O)N1C[C@H]2[C@@H]([C@H]1C(=O)N[C@H](C#N)C[C@@H]1CCNC1=O)C2(C)C` [NMV, nirmatrelvir], the antiviral activity entry is listed as “antiviral activity against all variants of concern”.
